# Reference: patent US20100159030A1, “METHODS FOR DETECTING AND MODULATING THE SENSITIVITY OF TUMOR CELLS TO ANTI-MITOTIC AGENTS AND FOR MODULATING TURMORGENICITY” (NewSouth Innovations Pty Limited, priority 2007, published 2010)
# How the values were obtained:
# [1] = test system: H460 cells; test: Soft agar colony assay (anchorage-independent cell growth); type: cell-based, Human; settings: vs mock or control siRNA/shRNA cells; 27-mers at 5 nM
# Method: H460 cells were transfected with βIII-tubulin siRNA or control siRNA for 24 h as described above. Cells from each sample (1,000 cells per dish) were resuspended in 0.33% agar (37° C.) in RPMI containing 20% FCS, and plated onto 0.5% solidified agar/20% FCS/RPMI (37° C., bottom supportive layer) in 35 mm dishes. Triplicate plates were set up for each sample. The plates were placed at 4° C. for 10 min to solidify the top agar and then incubated at 37° C. in 5% CO2 for 12 days. After 12 days of culture, the colonies were counted and photographed using the Zeiss Axiovert S100 inverted microscope, 5× objective and SPOT digital camera (Thornwood, N.Y.).
# [2] = test system: class III β-tubulin; test: Knockdown of class III β-tubulin expression (western blot, RT-PCR); type: cell-based, Human; settings: H460, subculturing time course
# Method: The effects of βIII-tubulin siRNA transfection on the gene and protein expression of the isotype, were assessed by RT-PCR and western blotting. For RT-PCR, total RNA was extracted from the transfected cells using the Trizol® reagent (Invitrogen), according to the manufacturer's instructions. RNA samples were DNAse-treated, reverse transcribed for RT-PCR analysis using methodology and specific primers as described in detail previously (Kavallaris et al. (1997) J Clin Invest 100, 1282-1293). B eta-2-micro globulin (β2M) was used as an internal mRNA control. Preparation of protein lysates and Western blot analysis were performed as follows. […] Primary antibodies were detected using horseradish peroxidase-linked secondary antibody (Amersham Pharmacia Biotech, Uppsala, Sweden) and enhanced chemiluminescence (GE Healthcare, Uppsala, Sweden) was used for detection. The blots were scanned using the Typhoon® scanner and quantified using ImageQuant® software version 5.2 (Molecular Dynamics Inc, Sunnyvale, Calif.). […]
# [3] = test system: NSCLC H460 cells; test: Drug-treated clonogenic assay (surviving fraction, ID50) on siRNA/shRNA-transfected cells; type: cell-based, Human; settings: for RS (relative sensitivity): Table 3
# Method: Cells were transfected for 24 h and approximately 600 cells (for Calu-6) or 150 cells (for H460) were seeded into each well of a 6-well plate and allowed to attach for 4-6 h. The cell lines used in this study were not subject to prior drug selection, and are likely to represent intrinsic drug resistance observed in lung carcinoma.
# Cells were then treated with increasing concentrations of various anti-mitotic drugs. Following a 3-day incubation at 37° C., the drug-containing medium was removed and replaced with fresh complete medium. Medium was changed at 3-4 day intervals for 7 to 10 days until visible colonies formed. […] Surviving colonies were simultaneously fixed and stained with 0.5% crystal violet in methanol, rinsed with water to remove excess stain and air-dried overnight.
# The colonies in each well were manually counted, and the results were presented as surviving fraction according to the formula: surviving fraction was calculated as follows: colony number/(number of cells seeded×plating efficiency), where plating efficiency is equivalent to the colony number divided by the number of cells seeded in the drug-free medium. Dose-response curves were plotted for each drug-cell line combination and inhibitory dose (ID50) values were extrapolated from this curve using GraphPad Prism program (GraphPad Software, version 4, San Diego, Calif.). ID50 was defined as the concentration of the drug required to reduce the number of colonies in drug-treated wells to 50% of that of the relevant untreated control wells. The ID50 values were the means of at least four independent experiments.
# To quantitate any change in drug sensitivity, drug treated clonogenic assays were performed. Twenty-four hours after siRNA transfection, cells were harvested and plated into 6-well plates for 6 h, prior to the addition of various drugs as indicated in the figure legends. After 72 h incubation, the drug-containing media was removed and replaced with complete growth media. Medium was changed every 3 days for 7 to 10 days until visible colonies formed. Colonies were simultaneously fixed and stained with 0.5% crystal violet in methanol, and manually counted. Individual stained colonies in each well were counted and the surviving fraction was calculated as follows: colony number/(number of cells seeded×plating efficiency), where plating efficiency equals the colony number divided by the number of cells seeded in drug-free media.
# [4] = test system: H460 cells; test: Apoptosis induction, Annexin V-FITC flow cytometry; type: cell-based, Human; settings: βIII-tubulin siRNA vs control siRNA cells, 48 h; paclitaxel 1, 2, 5 nM; cisplatin 0.4 or 1 μM
# Method: Annexin V-FITC staining followed by flow cytometry analysis was performed to address whether the increase in the sub-G1 population following exposure to tubulin-binding agents in the βIII-tubulin siRNA treated cells was related to an increase in apoptosis induction. Apoptosis induction was determined by transfecting H460 cells with siRNA for 72 h and harvesting (adherent and suspension) cells 48 h after drug treatment, as previously described in Pasquier et al., Mol Cancer Ther 2004; 3:1301-10. Briefly, 1×10^5 cells were incubated with Annexin V-FITC and propidium iodide for 15 min in the dark (Becton-Dickinson), immediately followed by flow cytometry using a FACSCalibur (Becton-Dickinson). Cytogram analysis was performed using CellQuest® software.
# [5] = test system: H460 cells stably expressing control or class III β-tubulin shRNA in subcutaneous tumors; test: Nude mouse xenograft, cisplatin (CDDP) treatment of tumors from H460 shRNA clones; type: in vivo, BALB/c athymic nude mice; settings: 3 doses CDDP 3.33 mg/kg over 3 days
# Method: FIG. 22 is a column chart illustrating the mean number of days for tumor to reach 1000 mm^3 post-treatment with cisplatin (CDDP) or phosphate buffered saline control (PBS) in a nude mouse xenograft animal model. Graphs illustrate results for control shRNA clones 1 and 2 with and without CDDP treatment and βIII-tubulin shRNA clones 4 and 59 with and without CDDP treatment. Once tumors reached approx 300 mm3 mice were treated with 3 doses of CDDP 3.33 mg/kg over 3 days or its vehicle control (PBS). Tumors were then measured twice weekly and mice were sacrificed once tumors reached 1000 mm^3 (n=5 mice per treatment group). Mean number of days were: Control clone 1 (PBS) 15.6 days±4.95; Control clone 1 (CDDP) 13 days±4.21; Control clone 2 (PBS) 7.2 days±1.5; Control clone 2 (CDDP) 10.8 days±3.54; class III 3-tubulin shRNA clone 4 (PBS) 15.6 days±3.12; class III β-tubulin shRNA clone 4 (CDDP) 35 days±3.03; class III β-tubulin shRNA clone 59 (PBS) 15.6 days±2.11; class III β-tubulin shRNA clone 59 (CDDP) 29.4 days±3.93.
# FIG. 24A is a plot of tumor volume over time in a nude mouse xenograft animal model following treatment with cisplatin (CDDP) or phosphate buffered saline control (PBS). Tumor size was plotted in mm^3 for control clone 2 with or without CDDP post-treatment and class III β-tubulin shRNA clone 4 with and without CDDP post-treatment. Once tumors reached approx 300 mm^3 mice were treated with 3 doses of CDDP (3.33 mg/kg) over 3 days or its vehicle control (PBS). Tumors were then measured twice weekly and mice sacrificed once tumors reached 1000 mm^3 FIG. 24B illustrates Kaplin Meier survival curves for tumors of two different clones with or without class III β-tubulin silencing and following CDDP or PBS vehicle treatment in vivo. Clone 2 was a control clone and clone 4 was class III β-tubulin silenced with shRNA. FIG. 24C is a plot of tumor size over time in a nude mouse xenograft animal model following treatment with cisplatin (CDDP) or phosphate buffered saline control (PBS). […] Tumors were then measured twice weekly and mice sacrificed once tumors reached 1000 mm^3 FIG. 24D illustrates Kaplin Meier survival curves for control clone 2 with and without CDDP post-treatment and for class III β-tubulin shRNA clone 59 with and without CDDP post-treatment. […]
# Female BALB/c athymic nude mice (5-6 week old) were maintained under pathogen-free conditions. […] The animals were monitored twice a week from the second week post-injection for tumor formation and health status. Tumor diameter was measured twice per week using a digital caliper throughout the experiment, and tumor volume in mm^3 was calculated using the formula: Volume=(length×width×depth)/2. […]
Molecule,number of colonies in soft agar [1],duration of class III β-tubulin protein knockdown [2],RS (relative sensitivity) ([3]; Ctrl clone 2 compared to ctrl clone 1),RS (relative sensitivity) ([3]; βIII shRNA clone 4 compared to ctrl clone 1),RS (relative sensitivity) ([3]; βIII shRNA clone 59 compared to ctrl clone 1),RS (relative sensitivity) ([3]; βIII shRNA clone 60 compared to ctrl clone 1),"change in drug sensitivity (clonogenic survival) ([3]; βIII-tubulin siRNA silencing vs controls, H460)",percentage of apoptotic cells [4],mean number of days for tumor to reach 1000 mm^3 post-treatment ([5]; Control clone 1),mean number of days for tumor to reach 1000 mm^3 post-treatment ([5]; Control clone 2),mean number of days for tumor to reach 1000 mm^3 post-treatment ([5]; class III β-tubulin shRNA clone 4),mean number of days for tumor to reach 1000 mm^3 post-treatment ([5]; class III β-tubulin shRNA clone 59)
"27-mer βIII siRNA Sequence-8: 27-mer siRNA to class III β-tubulin, SEQ ID NO: 11 and 12, position 1521-1545 (chain 1 AGACAGAGACAGGAGCAGCUCACACGU; chain 2 GUGUGAGCUGCUCCUGUCUCUGUCT; chemistry not given here)",significantly less colonies,–,–,–,–,–,–,–,–,–,–,–
"27-mer βIII siRNA Sequence-11: 27-mer siRNA to class III β-tubulin, SEQ ID NO: 13 and 14, position 1352-1376 (chain 1 UCUCACUCCAGCUGCGAGCAGCUUCAC; chain 2 GAAGCUGCUCGCAGCUGGAGUGAGA; listed as RNA, chemistry not given here)",significantly less colonies,6 days,–,–,–,–,–,–,–,–,–,–
"[NH2][Pt]([NH2])([Cl])[Cl] [CDDP, cisplatin]",–,–,"(1.06, NS)","(2.42, 0.0002***)","(1.86, 0.001**)","(1.72, 0.0019**)",increased sensitivity,significant increase in the number of apoptotic cells,13 days,10.8 days,35 days,29.4 days
